Experimental data reported in patent US20010014699A1, “Benflumetol derivatives, intermediates thereof and their use against parasitical protozoa and trematodes” (priority 1998, published 2001).
Read-outs that look alike come from different tables or passages of the source.

Experiments:
[1] = tested on: Plasmodium falciparum isolates; assay: WHO Standard Microtest, inhibition of schizont maturation in vitro; assay type: cell-based; conditions: for power ratio (PR) between benflumetol and the compound: Litchfield & Wilcoxon comparison; for efficacy compared with benflumetol (in words): Plasmodium falciparum in vitro; for inhibition at 0.003 µM: 3.0 nmol/l; for inhibition at 0.01 µM: 10.0 nmol/l; for inhibition at 0.03 µM: 30.0 nmol/l; for inhibition at 0.1 µM: 100.0 nmol/l; for inhibition at 0.3 µM: 300.0 nmol/l; for inhibition at 1 µM: 1000.0 nmol/l; for inhibition at 3 µM: 3000.0 nmol/l; for EC50: probit analysis, 95% confidence limits
Experimental: The study is carried out in Mae Sot, a province in north-west Thailand close to Myanmar. […] The test for efficacy is carried out with blood samples obtained by finger pricks (in accordance with the WHO Standard Microtest Method for studying the inhibition of schizont maturation, see Wemsdorfer, W. H., and Payne, D. (1988), Drug Sensitivity Tests. In: Wemsdorfer, W. H., and McGregor, I. A. (Editors), Malaria: Principles and practice of malariology; Churchill Livingstone, Edinburgh). The tests are carried out in parallel with benflumetol and the 2-alkylamino-1-[2,7-dichloro-9-(4-chlorobenzylidene]-9H-fluoren-4-yl)ethanols in concentrations between 3 and 3000 nmol/l in blood medium mixture (BMM) using materials from the WHO Standard Test Kit supplied by the WHO Regional Office for the Western Pacific, Manila, except for the predosed microtitre plates, which are prepared in the laboratory of the institute of Specific Prophylaxis and Tropical Medicine, University of Vienna, Austria.
The procedure for determining parasitaemia before incubation follows the WHO Standard Method (WHO (1991), Basic malaria microscopy. Part I; WHO, Geneva). The schizont titres are determined as described in Wemsdorfer and Payne (1988) (see above).
The statistical analysis of the data was carried out according to log-concentration/response probit analysis (Litchfield & Wilcoxon (1949), J. Exp. Pharmacol. 89, 99-113). This method is based on the least-squares procedure and is the most widely accepted method for the analysis of dose-response studies. A computer adaptation of the method (Wernsdorfer & Wernsdorfer, Mitteilungen der Österreichischen Gesellschaft für Tropenmedizin und Parasitologie 17, 221-228) is used for data processing.

[2] = cited from earlier work
[3] = cited from earlier work; remark: listed apart in the source
[4] = taken with foods having a high fat content; cited from earlier work
[5] = Plasmodium falciparum, 34-isolate test series (Examples 6.2 and 6.3)
[6] = Plasmodium falciparum, 34-isolate test series (Examples 6.2 and 6.3), read-out: EC50: mean value
[7] = Plasmodium falciparum, 58 isolates (Example 6.1)

Question: Which results are given for `CNCC(O)c1cc(Cl)cc2c1-c1ccc(Cl)cc1C2=Cc1ccc(Cl)cc1` (stereo not shown) [5a, 2-Methylamino-1-[2,7-dichloro-9-(4-chlorobenzylidene)-9H-fluoren-4yl]ethanol]?
Answer: EC99 of the compound as fraction of that for benflumetol ([1]; 34 isolates): about one fifth; concentration at which none of the isolates shows schizont maturation ([1]; 34 isolates): 1000 nmol/L; power ratio (PR) between benflumetol and the compound ([1]; 34 isolates): 2.8898; efficacy compared with benflumetol (in words) [1]: about four times as effective as benflumetol; inhibition at 0.003 µM [1, 5]: 13.1%; inhibition at 0.01 µM [1, 5]: 51.9%; inhibition at 0.03 µM [1, 5]: 83.1%; inhibition at 0.1 µM [1, 5]: 95.8%; inhibition at 0.3 µM [1, 5]: 97.1%; inhibition at 1 µM [1, 5]: 100%; inhibition at 3 µM [1, 5]: 100%; EC50 [1, 6]: 10.5 nM; isolates completely inhibited ([1]; at 100 nml/l, 34 isolates): 96%

Question: Which results are given for `CCCCCNCC(O)c1cc(Cl)cc2c1-c1ccc(Cl)cc1C2=Cc1ccc(Cl)cc1` (stereo not shown) [5c, 2-n-Pentylamino-1-[2,7-dichloro-9-(4-chlorobenzylidene)-9H-fluoren-4yl]ethanol]?
Answer: EC99 of the compound, times lower than that for benflumetol ([1]; 34 isolates): about 4 times; concentration at which none of the isolates shows schizont maturation ([1]; 34 isolates): 3000 nmol/L; power ratio (PR) between benflumetol and the compound ([1]; 34 isolates): 2.0724; efficacy compared with benflumetol (in words) [1]: about five times as effective as benflumetol; inhibition at 0.003 µM [1, 5]: 6.83%; inhibition at 0.01 µM [1, 5]: 36.4%; inhibition at 0.03 µM [1, 5]: 81.2%; inhibition at 0.1 µM [1, 5]: 94.8%; inhibition at 0.3 µM [1, 5]: 97%; inhibition at 1 µM [1, 5]: 99.6%; inhibition at 3 µM [1, 5]: 100%; EC50 [1, 6]: 14.4 nM; isolates completely inhibited ([1]; at 100 nml/l, 34 isolates): 95%

Question: With `CCN(CC)CCCC(C)Nc1ccnc2cc(Cl)ccc12` (stereo not shown) [Chloroquine] as the molecule, how does the “half-life (in words)” value ([2]; in vivo) read?
Answer: The value was “very long half-life”.

Question: Which half-life ([2]; in plasma) does the source give for `CO[C@H]1O[C@@H]2O[C@@]3(C)CC[C@H]4[C@H](C)CC[C@@H]([C@H]1C)[C@@]24OO3` [artemether, [3R-(3α, 5αβ, 6β, 8αβ, 9α, 10α, 12β,-12aR)]-decahydro-10-methoxy-3,6,9-trimethyl-3,12-epoxy-12H-pyrano[4,3-j]-1,2-benzodioxepin] here?
Answer: Its half-life is 2 h.

Question: For `CCCCN(CCCC)CC(O)c1cc(Cl)cc2c1-c1ccc(Cl)cc1C2=Cc1ccc(Cl)cc1` (stereo not shown) [benflumetol, 2-(di-n-butylamino)-1-[2,7-dichloro-9-(4-chlorobenzylidene)-9H-fluoren-4-yl]ethanol], which “concentration at which none of the isolates shows schizont maturation” value ([1]; 34 isolates) is on record?
Answer: The value was “above 3000 nmol/l”.

Question: What about the “concentration at which none of the isolates shows schizont maturation” value ([1]; 58 isolates) of the same molecule?
Answer: The value was “above 300 nmol/l”.

Question: What about the inhibition at 0.003 µM [1, 5] of the same molecule?
Answer: Its inhibition at 0.003 µM is 7.16%.

Question: And the inhibition at 0.003 µM [1, 7]?
Answer: Its inhibition at 0.003 µM is 7.14%.

Question: And the inhibition at 0.01 µM [1, 5]?
Answer: Its inhibition at 0.01 µM is 18.4%.

Question: And the inhibition at 0.01 µM [1, 7]?
Answer: The inhibition at 0.01 µM was 20.4%.

Question: And the inhibition at 0.03 µM [1, 5]?
Answer: Its inhibition at 0.03 µM is 42.8%.

Question: What about the inhibition at 0.03 µM [1, 7] of the same molecule?
Answer: The inhibition at 0.03 µM was 47.2%.

Question: What about the inhibition at 0.1 µM [1, 5] of the same molecule?
Answer: Its inhibition at 0.1 µM is 90.7%.

Question: What about the inhibition at 0.1 µM [1, 7] of the same molecule?
Answer: Its inhibition at 0.1 µM is 90.7%.

Question: What about the inhibition at 0.3 µM [1, 5] of the same molecule?
Answer: The inhibition at 0.3 µM was 96.2%.

Question: And the inhibition at 0.3 µM [1, 7]?
Answer: The inhibition at 0.3 µM was 99.8%.

Question: And the inhibition at 1 µM [1, 5]?
Answer: Its inhibition at 1 µM is 99.9%.

Question: And the inhibition at 1 µM [1, 7]?
Answer: The inhibition at 1 µM was 100%.

Question: What about the inhibition at 3 µM [1, 5] of the same molecule?
Answer: Its inhibition at 3 µM is 100%.

Question: What about the inhibition at 3 µM [1, 7] of the same molecule?
Answer: The inhibition at 3 µM was 100%.

Question: And the EC50 [1, 6]?
Answer: Its EC50 is 28 nM.

Question: And the EC50 ([1]; Plasmodium falciparum, read-out: EC50: mean value (50% inhibition versus controls not given active substance), 58 isolates (Example 6.1))?
Answer: The EC50 was 24.4 nM.

Question: And the isolates completely inhibited ([1]; at 300 nmol/l, 34 isolates)?
Answer: The isolates completely inhibited was 96%.

Question: And the isolates completely inhibited ([1]; at 300 nmol/l, 58 isolates)?
Answer: The isolates completely inhibited was 97%.

Question: And the EC50 ([1]; read-out: EC50: mean value (50% inhibition versus controls not given active substance), 58 isolates (Example 6.1))?
Answer: The EC50 was 24.4 nM.

Question: And the plasma half-life ([2]; in patients)?
Answer: Its plasma half-life is 4 to 6 days.

Question: And the “solubility (in words)” value [3]?
Answer: Its value is “not very good”.

Question: And the “absorption with foods having a high fat content, times higher than in the absence of such fatty foods” value [4]?
Answer: The value was “up to 16 times”.
